Source: PubChem BioAssay AID434934 (The Scripps Research Institute Molecular Screening Center, 2010)
pIC50: −log10 of the molar value. “And” between values parts separate entries of the source, which are not always exact repeats. Equal entries are not always repeated. The source made the active and inactive calls.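 How the source made its calls: active means IC50 at or below 10 µM; inactive means IC50 above 10 µM.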

Test system: NIH 3T3 viability, CellTiter-Glo ATP luminescence
Assay: cytotoxicity in NIH 3T3 fibroblasts, late-stage follow-up, cytotoxicity control for TPT1 inhibitor project, cell-based, luminescence, dose response (AID 434934)

Structure (SMILES) | pIC50 | IC50
Cc1[nH]n(-c2ccc(S(=O)(=O)O)cc2)c(=O)c1N[N-]c1ccc(C2=CC(=O)/C(=N\[N-]c3ccc4c(S(=O)(=O)O)cc(S(=O)(=O)O)c(N)c4c3O)C=C2)cc1O.[Cu+].[Cu+] | 5.74 | –
NS(=O)(=O)c1cc(C(=O)NC2CCSc3ccccc32)ccc1Cl (stereo not given) | – | > 79.4 µM (inactive)
OC(Cn1cncn1)(Cn1cncn1)c1ccc(F)cc1F | – | > 26.5 µM (inactive)
Cc1cc(C)n(Cc2ccc(C(=O)NN=Cc3ccc(-c4ccc([N+](=O)[O-])cc4)o3)o2)n1 | – | > 79.4 µM (inactive)
NC(=O)c1cc[n+](CC2=C(C(=O)O)N3C(=O)[C@@H](NC(=O)C(c4ccccc4)S(=O)(=O)O)[C@H]3SC2)cc1 (stereo not given in full) | – | > 79.4 µM (inactive)
Cc1ccc(N2C(=O)NC(=O)/C(=C\c3ccc([N+](=O)[O-])o3)C2=O)cc1 | – | 23.2 µM (inactive)
Cc1ccccc1N1C(=O)/C(=C/c2ccco2)C(=O)NC1=S | – | 46.1 µM (inactive) and 34.3 µM (inactive)
CC1=C(C#N)C(=O)N(C2CCS(=O)(=O)C2)C(=O)/C1=C\c1ccco1 (stereo not given) | – | 20.4 µM (inactive)
O=c1oc2c(O)c(O)cc3c(=O)oc4c(O)c(O)cc1c4c23 | – | > 26.5 µM (inactive)
COc1ccc(OC)c(N2C(=O)/C(=C/c3ccco3)C(=O)NC2=S)c1 | – | 73.9 µM (inactive)
